Experimental findings from US9931315B2, “Method of selectively inhibiting Ras-mediated tumor growth in humans” (ADT PHARMACEUTICALS, INC., priority 2014, dated 2018) are described below.

The IC50 is the concentration needed to halve the response being measured.

Holding throughout (type): cell-based, human
For assay [1], the system named is HT-29 colon cancer cells. In words: Cell growth inhibition (CellTiter-Glo ATP assay), HT-29 cells with wild-type Ras. Particulars: known Ras pathway inhibitors, 384-well plates, Table 4; read-out: HT-29 IC50. The procedure:
(§1) This example illustrates cell growth assays employed in the present invention.
(§2) Normal rat kidney (NRK) and Ki-Ras transformed NRK cells (K-NRK) were obtained from ATCC, and were cultured according to supplier recommendations. CellTiter-Glo ATP cell growth assay reagents were obtained from Promega and used according to the manufacturer's protocol. Inhibitors of EGFR, Raf, and MEK were obtained from Selleck Chemicals. Cells were plated at a density of 5,000 cells per well in 96-well microplates or 1,250 cells per well in 384-well plates, and allowed to attach for at least 4 h. Test compounds were dissolved in dimethyl sulfoxide (DMSO), and this working stock was further diluted in growth medium for addition to cell cultures. Serial dilutions of the test compound were prepared in growth medium containing an equal amount of DMSO not exceeding 0.2% final concentration. Each compound concentration was tested in at least 3 separate samples per cell line. At the end of a 3-day treatment period, growth inhibition was analyzed using a bioluminescent assay of ATP concentration (Promega CellTiter-Glo) according to the manufacturer's protocol. Resulting luminescence was measured using the luminescence cartridge of the Molecular Devices Spectramax Paradigm microplate reader. Relative growth inhibition for each sample was determined by comparison with the values obtained for vehicle treated control samples. Growth inhibition values were plotted with the GraphPad Prism5 software using the 4-parameter logistic fit to obtain IC50 values, which corresponds to the growth inhibitory potency of the compound.
This example illustrates effects of exemplary compounds of the present invention on cancer cells having activated or mutated Ras compared to wild-type (WT) Ras. […] A549 lung cancer cells, which harbor a mutation in the K-Ras oncogene were treated for three days with the compounds.
(§3) Cells were seeded in 384-well plates and allowed to attach. Ten-fold serial dilutions of compounds were tested. Each compound concentration was tested in at least 3 separate samples per cell line.

Assay [2] concerns SW-480 cells. Kind of assay: Cell growth inhibition (CellTiter-Glo), SW-480 colorectal cells with activated Ras. The note with it: known Ras pathway inhibitors, 384-well plates, Table 4; read-out: SW-480 IC50. The procedure:
as §1, §2
The growth inhibitory activity of the compounds was tested using the CellTiter-Glo assay. Cells were seeded in 384-well plates and allowed to attach, then ten-fold serial dilutions of compounds were tested. Each concentration was tested in at least 3 separate samples per cell line.
as §3
A general note: ATP-based viability assays read luminescence as a measure of living cells.

For assay [3], the system named is Caco-2 cells. In words: Cell growth inhibition (CellTiter-Glo), Caco-2 colorectal cells with wild-type Ras. The note with it: known Ras pathway inhibitors, 384-well plates, Table 4; read-out: Caco-2 IC50.
Assay [4] concerns HCT-116 colon tumor cells. In words: Cell growth inhibition (CellTiter-Glo), HCT-116 colon tumor cells expressing mutant Ras. Particulars: known Ras pathway inhibitors, 384-well plates, Table 4. The procedure: This example illustrates cell growth assays employed in the present invention. […] Normal rat kidney (NRK) and Ki-Ras transformed NRK cells (K-NRK) were obtained from ATCC, and were cultured according to supplier recommendations. CellTiter-Glo ATP cell growth assay reagents were obtained from Promega and used according to the manufacturer's protocol. Inhibitors of EGFR, Raf, and MEK were obtained from Selleck Chemicals. Cells were plated at a density of 5,000 cells per well in 96-well microplates or 1,250 cells per well in 384-well plates, and allowed to attach for at least 4 h. Test compounds were dissolved in dimethyl sulfoxide (DMSO), and this working stock was further diluted in growth medium for addition to cell cultures. Serial dilutions of the test compound were prepared in growth medium containing an equal amount of DMSO not exceeding 0.2% final concentration. Each compound concentration was tested in at least 3 separate samples per cell line. At the end of a 3-day treatment period, growth inhibition was analyzed using a bioluminescent assay of ATP concentration (Promega CellTiter-Glo) according to the manufacturer's protocol. Resulting luminescence was measured using the luminescence cartridge of the Molecular Devices Spectramax Paradigm microplate reader. Relative growth inhibition for each sample was determined by comparison with the values obtained for vehicle treated control samples. […] This example illustrates use of well-established human colon tumor cell lines with widely divergent Ras activation status to determine selectivity values for exemplary compounds of the present invention. […] Cells were plated at 5000 cells/well in 96-well plates, and viable cell numbers were measured using the Cell Titer Glo ATP luminescence assay (Promega). […] Cells were seeded in 384-well plates and allowed to attach. Ten-fold serial dilutions of compounds were tested. Each compound concentration was tested in at least 3 separate samples per cell line.

Assay [5] relates to DLD-1 cells. In words: Cell growth inhibition (CellTiter-Glo), DLD-1 colorectal cells. The note with it: known Ras pathway inhibitors, 384-well plates, Table 4.
Assay [6] concerns COLO-205 cells. Kind of assay: Cell growth inhibition (CellTiter-Glo), COLO-205 colorectal cells. The note with it: known Ras pathway inhibitors, 384-well plates, Table 4.
Assay [7] relates to panel of colorectal cancer cell lines. In words: Growth inhibition of known Ras pathway inhibitors across the colorectal cell line panel, pattern versus Ras activation. Particulars: HCT-116, DLD-1, SW-480, Caco-2, HT-29, COLO-205 panel. The procedure:
This example illustrates non-selective growth inhibition with known Ras pathway inhibitors which are not compounds of the present invention. In particular, the growth inhibitory activity of commercially available compounds which are active in the Ras signal transduction pathway were tested in the same panel of cell lines using the CellTiter-Glo assay. Cells were seeded in 384-well plates and allowed to attach. Ten-fold serial dilutions of compounds were tested. Each compound concentration was tested in at least 3 separate samples per cell line.

`O=C1Nc2ccc(I)cc2/C1=C/c1cc(Br)c(O)c(Br)c1` [GW5074, reference compound]: the IC50 is 19.1 µM in assay [1]; 8.07 µM in assay [2]; above 20 µM in assay [3]; 15.8 µM in assay [4]; 7.75 µM in assay [5]; 7.1 µM in assay [6]. Also, in assay [7], the “selectivity with regard to Ras activation” value is recorded as “did not show selectivity”.
